Assay results as given in ChEMBL document CHEMBL1201862, “PubChem BioAssay data set” (2004).
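All cell lines were grown in 96-well plates and treated with compound for 48 hours. GI50 is the concentration that inhibits growth by half.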 Activity calls are given as the source filed them. Rule as the data show it: active = GI50 up to about 1.1 µM and inactive = higher.

Key:
Assay in all cases: inhibition of tumour cell growth, NCI panel, 48 h
[1] = system: A549
[2] = system: CCRF-CEM
[3] = system: COLO 205
[4] = system: DU-145
[5] = system: HCT-15
[6] = system: MDA-N
[7] = system: MOLT-4
[8] = system: Malme-3M
[9] = system: OVCAR-4
[10] = system: OVCAR-8
[11] = system: RXF 393
[12] = system: SF-295
[13] = system: SK-MEL-28
[14] = system: SW-620
[15] = system: TK-10
[16] = system: UACC-257
[17] = system: HCT-116
[18] = system: NCI/ADR-RES
[19] = system: SK-OV-3
[20] = system: A498

SMILES	GI50 [1]	GI50 [2]	GI50 [3]	GI50 [4]	GI50 [5] [µM]	GI50 [6]	GI50 [7]	GI50 [8]	GI50 [9]	GI50 [10]	GI50 [11]	GI50 [12]	GI50 [13]	GI50 [14]	GI50 [15]	GI50 [16]	GI50 [17]	GI50 [18]	GI50 [19]	GI50 [20]
CC1(O)/C(=N/O)CC2CC1C2(C)C (stereo not drawn)	> 100 µM (inactive)	> 100 µM (inactive)	> 100 µM (inactive)	> 100 µM (inactive)	> 100	> 100 µM (inactive)	> 100 µM (inactive)	> 100 µM (inactive)	> 100 µM (inactive)	> 100 µM (inactive)	> 100 µM (inactive)	> 100 µM (inactive)	> 100 µM (inactive)	> 100 µM (inactive)	> 100 µM (inactive)	> 100 µM (inactive)	–	–	–	–
Cc1cc(N(CCC#N)CCC#N)ccc1C(/N=N/c1ccc([N+](=O)[O-])cc1)=N\NC(=O)c1cc(Cl)ccc1C(=O)c1ccccc1	15 µM (inactive)	2.98 µM (inactive)	16.2 µM (inactive)	10.9 µM (inactive)	4.8	18.9 µM (inactive)	4.65 µM (inactive)	13.2 µM (inactive)	9.2 µM (inactive)	6.21 µM (inactive)	13 µM (inactive)	14.5 µM (inactive)	20.2 µM (inactive)	8.65 µM (inactive)	16.9 µM (inactive)	32.2 µM (inactive)	4.23 µM (inactive)	12.2 µM (inactive)	13.5 µM (inactive)	–
O=S(=O)(c1ccccc1)c1ccc(-c2nc(-c3ccc4c(c3)Sc3ccccc3S4)cs2)cc1	> 100 µM (inactive)	41.9 µM (inactive)	> 100 µM (inactive)	> 100 µM (inactive)	> 100	–	31.6 µM (inactive)	39.5 µM (inactive)	> 100 µM (inactive)	71.9 µM (inactive)	15.8 µM (inactive)	16.5 µM (inactive)	–	> 100 µM (inactive)	22.1 µM (inactive)	> 100 µM (inactive)	73.3 µM (inactive)	–	18.9 µM (inactive)	–
CN1C/C(=C\C=C\c2ccccc2)C(=O)/C(=C/C=C/c2ccccc2)C1	> 100 µM (inactive)	35.9 µM (inactive)	> 100 µM (inactive)	–	> 100	–	40.3 µM (inactive)	> 100 µM (inactive)	> 100 µM (inactive)	82.2 µM (inactive)	> 100 µM (inactive)	> 100 µM (inactive)	> 100 µM (inactive)	> 100 µM (inactive)	> 100 µM (inactive)	> 100 µM (inactive)	> 100 µM (inactive)	–	> 100 µM (inactive)	> 100 µM (inactive)
CC(NC(=O)C(C)C(=O)Nc1ccc(C(F)(F)F)cc1)C(N)=O (stereo not drawn)	> 100 µM (inactive)	> 100 µM (inactive)	> 100 µM (inactive)	> 100 µM (inactive)	> 100	> 100 µM (inactive)	> 10 µM (inactive)	> 100 µM (inactive)	–	> 100 µM (inactive)	> 100 µM (inactive)	> 100 µM (inactive)	–	> 100 µM (inactive)	–	> 100 µM (inactive)	> 100 µM (inactive)	> 100 µM (inactive)	> 100 µM (inactive)	–
COc1ccc(/C=c2\s/c(=C3/SC(=S)N(c4ccccc4)C3=O)n(-c3ccccc3)c2=O)cc1	> 100 µM (inactive)	24 µM (inactive)	> 100 µM (inactive)	> 100 µM (inactive)	> 100	> 100 µM (inactive)	29.8 µM (inactive)	> 100 µM (inactive)	> 100 µM (inactive)	> 100 µM (inactive)	–	35 µM (inactive)	> 100 µM (inactive)	> 100 µM (inactive)	21.5 µM (inactive)	–	> 100 µM (inactive)	> 100 µM (inactive)	12.1 µM (inactive)	36.6 µM (inactive)
COc1ccc(C2c3cc4c(cc3C(O)C3CCC(=O)N23)OCO4)cc1 (stereo not drawn)	> 100 µM (inactive)	> 100 µM (inactive)	> 100 µM (inactive)	> 100 µM (inactive)	> 100	> 100 µM (inactive)	> 100 µM (inactive)	> 100 µM (inactive)	> 100 µM (inactive)	> 100 µM (inactive)	–	> 100 µM (inactive)	> 100 µM (inactive)	> 100 µM (inactive)	> 100 µM (inactive)	> 100 µM (inactive)	> 100 µM (inactive)	> 100 µM (inactive)	> 100 µM (inactive)	> 100 µM (inactive)
Nc1ncnc2c1ncn2C1CCC(CP(=O)(O)O)C1 (stereo not drawn)	> 100 µM (inactive)	–	> 100 µM (inactive)	> 100 µM (inactive)	> 100	> 100 µM (inactive)	–	> 100 µM (inactive)	> 100 µM (inactive)	> 100 µM (inactive)	> 100 µM (inactive)	> 100 µM (inactive)	> 100 µM (inactive)	> 100 µM (inactive)	> 100 µM (inactive)	> 100 µM (inactive)	> 100 µM (inactive)	> 100 µM (inactive)	> 100 µM (inactive)	–
CN(c1c(Cl)cccc1Cl)S(=O)(=O)c1ccccc1[N+](=O)[O-]	> 100 µM (inactive)	–	> 100 µM (inactive)	> 100 µM (inactive)	> 100	> 100 µM (inactive)	> 100 µM (inactive)	> 100 µM (inactive)	> 100 µM (inactive)	> 100 µM (inactive)	> 100 µM (inactive)	> 100 µM (inactive)	> 100 µM (inactive)	> 100 µM (inactive)	> 100 µM (inactive)	> 100 µM (inactive)	> 100 µM (inactive)	> 100 µM (inactive)	> 100 µM (inactive)	–
CCCN(CCC)C(=S)Sc1nc(C)nc(N2CCN(c3nc(C)nc(SC(=S)N(CCC)CCC)c3[N+](=O)[O-])CC2)c1[N+](=O)[O-]	20.7 µM (inactive)	0.628 µM (active)	0.262 µM (active)	26.8 µM (inactive)	9.4	8.45 µM (inactive)	3.23 µM (inactive)	18.8 µM (inactive)	17.3 µM (inactive)	5.5 µM (inactive)	4.19 µM (inactive)	24.9 µM (inactive)	15.3 µM (inactive)	3.53 µM (inactive)	20.1 µM (inactive)	15.6 µM (inactive)	2.03 µM (inactive)	41.5 µM (inactive)	56.4 µM (inactive)	–
N#Cc1ccc(Sc2ccccc2)cc1C#N	> 100 µM (inactive)	18.1 µM (inactive)	33.2 µM (inactive)	–	16	–	> 100 µM (inactive)	> 100 µM (inactive)	> 100 µM (inactive)	31 µM (inactive)	33 µM (inactive)	39.9 µM (inactive)	> 100 µM (inactive)	–	80.5 µM (inactive)	> 100 µM (inactive)	20.7 µM (inactive)	–	54 µM (inactive)	> 100 µM (inactive)
C/C(=N/N)c1sc(-c2nc(C)c(/C(C)=N\N)s2)nc1C	> 100 µM (inactive)	27.2 µM (inactive)	> 46.1 µM (inactive)	–	> 43	–	24.5 µM (inactive)	> 100 µM (inactive)	> 100 µM (inactive)	> 86.1 µM (inactive)	> 100 µM (inactive)	> 100 µM (inactive)	> 100 µM (inactive)	> 100 µM (inactive)	> 100 µM (inactive)	> 100 µM (inactive)	> 100 µM (inactive)	–	> 100 µM (inactive)	> 100 µM (inactive)
CN(C)c1ccc(C=C2N=C(c3ccccc3)N(c3cc(C(=O)c4ccccc4)ccc3N3C(=O)/C(=C/c4ccc(N(C)C)cc4)N=C3c3ccccc3)C2=O)cc1	6.31 µM (inactive)	3.49 µM (inactive)	3.74 µM (inactive)	5.74 µM (inactive)	4.49	2.16 µM (inactive)	3.38 µM (inactive)	–	7.21 µM (inactive)	11.5 µM (inactive)	–	3.76 µM (inactive)	> 100 µM (inactive)	5.32 µM (inactive)	23.8 µM (inactive)	6.43 µM (inactive)	3.76 µM (inactive)	4.06 µM (inactive)	4.75 µM (inactive)	3.48 µM (inactive)
Cc1cc(C)c(/C=N/NS(=O)(=O)c2ccccc2)c(C)c1	> 100 µM (inactive)	62.8 µM (inactive)	> 100 µM (inactive)	–	> 100	–	44.7 µM (inactive)	> 100 µM (inactive)	> 100 µM (inactive)	71.6 µM (inactive)	44.9 µM (inactive)	38.5 µM (inactive)	> 100 µM (inactive)	> 100 µM (inactive)	> 100 µM (inactive)	68.7 µM (inactive)	> 100 µM (inactive)	–	> 100 µM (inactive)	56.1 µM (inactive)
Cc1ccc(CS(=O)(=O)C/N=C2\Sc3ccccc3N\C2=C/C(=O)c2ccc(Cl)cc2)cc1	> 10 µM (inactive)	1 µM (active)	> 10 µM (inactive)	> 10 µM (inactive)	> 10	> 10 µM (inactive)	6.08 µM (inactive)	> 10 µM (inactive)	5.47 µM (inactive)	> 10 µM (inactive)	–	> 10 µM (inactive)	> 10 µM (inactive)	> 10 µM (inactive)	> 10 µM (inactive)	> 10 µM (inactive)	> 10 µM (inactive)	> 10 µM (inactive)	> 10 µM (inactive)	–
COc1ccc2nc3cc(Cl)ccc3c(Sc3ccccc3[N+](=O)[O-])c2c1	> 100 µM (inactive)	> 100 µM (inactive)	17.3 µM (inactive)	–	> 100	–	> 100 µM (inactive)	> 100 µM (inactive)	> 100 µM (inactive)	> 100 µM (inactive)	49.5 µM (inactive)	> 100 µM (inactive)	> 100 µM (inactive)	> 100 µM (inactive)	81.8 µM (inactive)	> 100 µM (inactive)	> 100 µM (inactive)	–	58.1 µM (inactive)	> 100 µM (inactive)
